Assay results as given in US9289462B2, “Method for medical treatment utilizing glutathione” (priority 2008, dated 2016).
Like-named read-outs stand apart in the source and are kept apart here.

Columns and labels:
[1] = system: amylase and lipase levels; details: Example 2; for Lipase: Normal 8-57; for Amylase: Normal 30-110
Description: (§3) The patient improved substantially over a several week period on nonspecific supportive therapy but continued to require pain medication intermittently.

[2] = system: patient with constant abdominal pain secondary to chronic pancreatitis; details: for Pain Score: GSH (1 gm) IV
Description: (§1) A patient who has experienced over 5 years of constant abdominal pain secondary to chronic pancreatitis is given intravenous reduced L-glutathione therapy.

[3] = system: amylase and lipase levels; details: Example 1; for Lipase: Normal 8-57; for Amylase: Normal 30-110
Description: as §1

[4] = system: patient with acute pancreatitis, abdominal pain; assay: Example 2: pain score of a patient with acute pancreatitis after a single dose of intravenous reduced L-glutathione; type: in vivo, human
Description: as §3

[5] = system: patients with acute pancreatitis; details: previous studies, cited from earlier work; for benefit in patients with acute pancreatitis: administration of n-acetylcysteine together with the antioxidants selenium and vitamin C
[6] = system: amylase, lipase and C-reactive protein levels; details: Example 3; for CRP: Normal 0-7.48; for Lipase: Normal 8-57; for Amylase: Normal 30-110
Description: (§2) A person had experienced 5 weeks of increasing back and abdominal pain prior to first dose of intravenous L-glutathione. […] The patient elected to undergo intravenous L-glutathione reduced therapy for pancreatitis.

[7] = system: patient with back and abdominal pain, pancreatitis; details: for Pain Score: GSH (1 gm)
Description: as §2

[8] = known value; cited from earlier work
[9] = May 7, 2008 (date of GSH infusion)
[10] = Sep. 14, 2007 (before first GSH infusion of Sep. 28, 2007)
[11] = Sep. 28, 2007 (date of first GSH infusion)
[12] = Jun. 3, 2008 (date of first GSH dose)
[13] = May 22, 2008 (before first GSH dose of Jun. 3, 2008)
[14] = May 30, 2008 (before first GSH dose)

`NC(CCC(=O)NC(CS)C(=O)NCC(=O)O)C(=O)O` (stereo not shown) [GSH, 2-amino-4-[[1-(carboxymethylcarbamoyl)-2-sulfanyl-ethyl]carbamoyl]butanoic acid] showed a Lipase [1, 9] of 161, an Amylase [1, 9] of 115 and a Lipase ([1]; May 9, 2008) of 132. For the same molecule, the Amylase ([1]; May 9, 2008) was 105, the “Pain Score” value ([2]; Example 1, person, Sep. 28, 2007, pain medication hydrocodone) was 8 of 10 and the “Pain Score” value ([2]; Example 1, Dec. 10, 2007, pain medication propoxyphene) was 1 of 10. For the same molecule, the “Pain Score” value ([2]; Example 1, Dec. 17, 2007, pain medication None) was 0 of 10, the “Pain Score” value ([2]; Example 1, Jan. 3, 2008, pain medication None) was 0 of 10 and the “Pain Score” value ([2]; Example 1, Nov. 12, 2007, pain medication propoxyphene) was 1 of 10. For the same molecule, the “Pain Score” value ([2]; Example 1, Oct. 10, 2007, pain medication propoxyphene) was 5 of 10, the “Pain Score” value ([2]; Example 1, Oct. 29, 2007, pain medication propoxyphene) was 2 of 10 and the “Pain reported by the patient” value ([2]; Example 1, within four months of initiating reduced L-glutathione therapy) was “absence of pain”. The Lipase ([3]; Jun. 27, 2008) was 30, the Amylase ([3]; Jun. 27, 2008) was 68 and the Lipase ([3]; Nov. 5, 2007) was 39. The Amylase ([3]; Nov. 5, 2007) was 62, the Lipase [3, 10] was 108 and the Amylase [3, 10] was 90. For the same molecule, the Lipase [3, 11] was 64, the Amylase [3, 11] was 79 and the “amylase and lipase levels” value ([3]; during the course of treatment) was “significantly reduced”. The “Pain Score” value ([4]; Example 2, person, GSH (1 gm) IV, May 7, 2008, pain medication hydrocodone) was 5 of 10, the “Pain Score” value ([4]; Example 2, May 9, 2008, follow up visit only, no infusion given, pain medication None) was 0 of 10 and the “pain and enzyme levels” value ([4]; Example 2, single dose of intravenous reduced L-glutathione) was “responded to a single dose”. The “effect on multiple organ functions in patients with acute pancreatitis” value ([5]; administration of glutathione) was “protective effect”, the CRP [6, 12] was 7.84 and the Lipase [6, 12] was 112. It also gave an Amylase [6, 12] of 95, a CRP ([6]; Jun. 5, 2008) of 9.11 and a Lipase ([6]; Jun. 5, 2008) of 152. For the same molecule, the Amylase ([6]; Jun. 5, 2008) was 128, the Lipase ([6]; Jun. 16, 2008) was 89 and the Amylase ([6]; Jun. 16, 2008) was 75. It also gave a CRP ([6]; Jun. 25, 2008) of 3.97, a Lipase ([6]; Jun. 25, 2008) of 60 and an Amylase ([6]; Jun. 25, 2008) of 64. For the same molecule, the Lipase [6, 13] was 150, the Amylase [6, 13] was 105 and the Lipase [6, 14] was 150. The Amylase [6, 14] was 124, the “amylase, lipase and C-reactive protein levels” value ([6]; within a month of intravenous L-glutathione reduced therapy) was “reduction” and the “Pain Score” value ([7]; Example 3, person, Jun. 3, 2008, pain medication hydrocodone) was 5 of 10. For the same molecule, the “Pain Score” value ([7]; Example 3, Jun. 4, 2008, pain medication hydrocodone) was 0 of 10, the “Pain Score” value ([7]; Example 3, Jun. 5, 2008, pain medication hydrocodone) was 2.5 of 10 and the “Pain Score” value ([7]; Example 3, Jun. 6, 2008, pain medication hydrocodone) was 4.5 of 10. For the same molecule, the “Pain Score” value ([7]; Example 3, Jun. 9, 2008, pain medication hydrocodone) was 3 of 10, the “Pain Score” value ([7]; Example 3, Jun. 16, 2008, pain medication None) was 0 of 10 and the “Pain Score” value ([7]; Example 3, Jun. 18, 2008, pain medication None) was 0 of 10. The “Pain Score” value ([7]; Example 3, Jun. 25, 2008, Back pain due to lifting furniture) was 2 of 10 and the pain ([7]; Example 3, within a month of intravenous L-glutathione reduced therapy) was “significant decrease in pain”.

For `CC(C)OC(=O)CNC(=O)[C@H](CS)NC(=O)CC[C@H](N)C(=O)O` [glutathione isopropyl ester], the “toxicity LD 50 value” [8] is given as “about 5.3 g/kg”.

In the case of `COc1ccc2c3c1O[C@H]1C(=O)CC[C@H]4[C@@H](C2)N(C)CC[C@]314` [hydrocodone, reference compound], the pain ([4]; Example 2, May 7, 2008, pain described as 10/10, relieved with hydrocodone taken at home, before GSH) is reported as 5 /10.

In the case of `CC(=O)N[C@@H](CS)C(=O)O` [n-acetylcysteine, reference compound], the “benefit in patients with acute pancreatitis” value (“benefit in patients” for short) [5] is given as “failed to show any benefit”.

For `[Se]` [selenium], the “benefit in patients” value [5] is listed as “failed to show any benefit”.

In the case of `O=C1O[C@H]([C@@H](O)CO)C(O)=C1O` [vitamin C, reference compound], the “benefit in patients” value [5] is given as “failed to show any benefit”.
